Results taken from patent US5824647A, “Chemotactic wound healing peptides” (priority 1995, dated 1998).
“Also recorded” adds a separate entry of the source.

How the values were obtained:
[1] = tested on: human peripheral blood monocytes; experiment: Monocyte chemotaxis in modified Boyden chambers; format: cell-based; settings: for monocyte chemotaxis / migration (in words): peptide in lower compartment of modified Boyden chamber; for Mean Monocytes per 20 OIF + SEM: Experiment 2, peptide in lower compartment
Description: Human peripheral blood neutrophils and monocytes, isolated from whole blood using standard techniques may also be used in the chemotaxis assays, in a manner similar to infant foreskin fibroblasts, to measure the chemotactic activity of the peptides towards inflammatory cells. Such cells may also be maintained in supplemented MEM as above, to which 5-10% FCS may be added. When using neutrophils and monocytes, instead of fibroblasts, the polycarbonate filters used in the modified Boyden chambers had pore sizes of 2 and 3 microns, respectively. As above, all assays were carried out in quadruplicate.
The following 7-mer peptides (peptides 368-374, corresponding to amino acids 368-374 of human TGF-β1): VYYVGRK (SEQ ID NO. 1), LYYIGKT (SEQ ID NO. 2), LYYVGRT (SEQ ID NO. 3), IYYVGRN (SEQ ID NO. 4) and IYYVGRT (SEQ ID NO. 5) were synthesized by the Merrifield technique, purified by HPLC, and tested at different concentrations in the same assay for their ability to stimulate chemotaxis of human peripheral blood monocytes in vitro modified Boyden chambers.

[2] = tested on: infant foreskin fibroblasts; experiment: Collagen production by fibroblasts (modified Peterofsky-Diegelman assay); format: cell-based, human; settings: [3H]proline incorporation into collagenase-sensitive protein
Method: The peptides of the invention were also found to stimulate collagen production by fibroblasts. Collagen production by fibroblasts in response to the peptides of the present invention was measured utilizing a modified Peterofsky-Diegelman assay. The assay is used to determine whether the peptides of the invention stimulate or inhibit collagen production by fibroblasts.
Low passage (4-12 subpassages) infant foreskin fibroblasts were plated out at a density of 10^5 cells/well in Falcon 3008 multiwell plates in complete maintenance medium containing 10% FCS. After cells reached confluency (72 hr), the medium was changed daily for 3 days, each time being replaced with serum-free maintenance medium containing fresh ascorbic acid. Samples (50 μl) were added to triplicate wells containing 450 μl serum-free MEM supplemented with fresh ascorbic acid and [^3 H]-proline (sp. act. 20 Ci/mmole), but no non-essential amino acids. After an additional 24 hr of culture, supernatants were reacted with protease-free bacterial collagenase to digest all collagen. Similar aliquots of unreacted supernatants and bacterial collagenase-treated supernatants were precipitated with cold 10% trichloroacetic acid (TCA) and were centrifuged for 5 minutes in a Beckman microfuge. Aliquots of the supernatants, after TCA precipitated proteins were pelleted, were placed in vials containing Hydrofluor and then were counted in a scintillation counter. CPM from TCA precipitated supernatants not reacted with bacterial collagenase were subtracted from each culture. The resulting CPM was a reflection of the collagen produced by that culture.
A modified Peterofsky-Diegelmann assay was used to screen peptide samples for their ability to stimulate or inhibit collagen production. Low passage (4-12 subpassages) infant foreskin fibroblast were plated out at a density of 10^5 cells/well of Falcon 3008 multiwell plates in complete maintenance medium containing 10% FCS. After cells reached confluency (72 hr) the medium was changed daily for 3 days, each time being replaced with serum-free maintenance medium containing fresh ascorbic acid. Samples ([…]) were added to triplicate wells containing […] serum free MEM supplemented with fresh ascorbic acid and [^3 H]-proline (sp. act. 20 Ci/mmole), but no non-essential amino acids. After an additional 24 hours of culture, supernatants were reacted with protease-free bacterial collagenase to digest all collagen. Similar aliquots of unreacted supernatants and bacterial collagenase-treated supernatants were precipitated with cold 10% trichloroacetic acid (TCA) and were centrifuged for 5 minutes in a Beckman microfuge. Aliquots of the supernatants, after TCA precipitated proteins were pelleted, were placed in vials containing Hydrofluor and then were counted in a scintillation counter. CPM from TCA precipitated supernatants not reacted with bacterial collagenase were subtracted from each culture. The resulting CPM was a reflection of the collagen produced by that culture.
Collagen production was measured following administration of the various 7-mer peptides 368-374 (SEQ ID NOs. 1-5) to fibroblasts. Peptides […] (SEQ ID NO. 1), LYYIGKT (SEQ ID NO. 2), LYYVGRT (SEQ ID NO. 3), IYYVGRN (SEQ ID NO. 4) and IYYVGRT (SEQ ID NO. 5) were synthesized by the Merrifield technique, purified by HPLC, and tested at different concentrations in the same assay for their ability to stimulate production of collagen in confluent cultures of infant foreskin fibroblasts. Collagen production was measured by incorporation of [^3 H]proline into collagenase-sensitive protein. All samples were tested in triplicate, and values represent the mean of triplicate determinations. Data are expressed as "% stimulation" of collagen production relative to control production in cultures with plain culture medium only added. […]

fibroblasts [3] = experiment: HLA-DR, fibroblast effects; format: cell-based; design: key: NE = No Effect; settings: Table II summary
[4] = tested on: fibroblasts, monocytes and neutrophils; experiment: Chemotaxis assays expressed as Migration Index (cell type not separated); format: cell-based, human; settings: cells migrating in response to peptide divided by cells migrating in response to medium; positive chemotactic control
Description: The peptides of the invention induce chemotaxis of fibroblasts and inflammatory cells (neutrophils and monocytes/macro-phages) in in vitro assays. Assays for measuring chemotaxis induced by the peptides can utilize either fibroblasts or monocytes. The following sets forth a representative assay for measuring fibroblast chemotaxis induced by the peptides of the invention:
Peptides 280-293, 296-322, 328-354, 358-382 (SEQ ID NO. 16), 366-387 (SEQ ID NO. 11), 364-378 (SEQ ID NO. 6) and 368-374 (SEQ ID NO. 1) of Table I, whose sequences correspond to the designated regions of TGF-β1 were tested in chemotaxis assays for the ability to induce migration of fibroblasts, monocytes and neutrophils. The peptides were added to the lower compartments of modified Boyden chambers at the indicated concentration.
Because the peptides were tested in different experiments, migration was expressed as "Migration Index" which is obtained by dividing the number of cells migrating in response to medium into the number of cells migrating in response to each peptide. A positive chemotactic control, peptide 340-391 gave migration indices between 7-11.

T-Cell = experiment: T-cell proliferation; format: cell-based; design: key: NE = No Effect; settings: Table II summary
fibroblasts [5] = experiment: Hyaluronate production by fibroblasts; format: cell-based; design: key to FIBROBLAST EFFECTS Hyaluronate: NE = No Effect

Row | Substance | monocyte chemotaxis / migration (in words) [1] | collagen production by fibroblasts (in words) [2] | FIBROBLAST EFFECTS HLA-DR (fibroblasts [3]) | Migration Index [4] | T-Cell Proliferation (T-Cell) | Mean Monocytes per 20 OIF + SEM ([1]; Media added to upper compartment) [Monocytes per 20 OIF] | Mean Monocytes per 20 OIF + SEM ([1]; TGF-β1 (50 pg/ml) added to upper compartment) [Monocytes per 20 OIF] | monocyte chemotaxis / migration (in words) ([1]; listed as VYYVGRK) | synthesis of hyaluronic acid (in words) (fibroblasts [5]) | FIBROBLAST EFFECTS Hyaluronate (fibroblasts [5]; Table II summary)
1 | 340-391: synthetic peptide corresponding to sequence 340-391 of TGF-β1; positive chemotactic control (VLALYNQHNPGASAAPCCVPQALEPLPIVYYVGRKPKVEQLSNMIVRSCKCS; printed: Val Leu Ala Leu Tyr Asn Gln His Asn Pro Gly Ala Ser Ala Ala Pro Cys Cys Val Pro Gln Ala Leu Glu Pro Leu Pro Ile Val Tyr Tyr Val Gly Arg Lys Pro Lys Val Glu Gln Leu Ser Asn Met Ile Val Arg Ser Cys Lys Cys Ser) [Peptide 340-391] | migrated in a dose dependent fashion | stimulated to some degree | NE | 7-11 |  |  |  |  |  | 
2 | PLPIVYYVGRKPKVE [Peptide 364-378, 15-mer peptide 364-378 of TGF-β1] | induced migration of fibroblasts, monocytes and neutrophils in a dose dependent fashion | stimulated to some degree | NE |  | NE |  |  |  |  | 
3 | VYYVGRK [Peptide 368-374, 7-mer corresponding to amino acids 368-374 of TGF-β1] | induced migration of fibroblasts, monocytes and neutrophils in a dose dependent fashion | stimulated to some degree; also recorded: does stimulate fibroblast chemotaxis and synthesis of collagen and hyaluronic acid | NE |  | NE | 138 ± 8 | 50 ± 5 | induced monocyte chemotaxis at all of the concentrations tested | does stimulate fibroblast chemotaxis and synthesis of collagen and hyaluronic acid | 
4 | YSKVLALYNQHNPGASAAPC (YSKVLALYNQHNPGASAAPC) [Peptide 337-356] |  | stimulated to some degree | NE |  |  |  |  |  |  | NE
